In patent US20250091994A1, “RAS/RAF BINDING INHIBITOR COMPOUND” (NATIONAL UNIVERSITY CORPORATION KOBE UNIVERSITY, priority 2021, published 2025):
Read-outs that look alike come from different tables or passages of the source.

Columns and labels:
[1] = target: GTPγS-bound human HRasG12V / human c-Raf-1 Ras binding domain (RBD) (Homo sapiens (Human), UniProt P01112, G12V); assay: Ras-Raf binding inhibition ELISA
Description: The in vitro Ras-Raf binding inhibitory activity of the compound of the present invention was evaluated by an ELISA method (Enzyme-Linked ImmunoSorbent Assay) described below.
Ras and Raf used upon the evaluation were purified and activated by the following method.
Using a pGEX6P-1 vector (GE Healthcare), human HRasG12V (full length, 1-189 amino acid residues) and human c-Raf-1 Ras binding domain (RBD) (50-131 amino acid residues) were each allowed to express as a fusion body with glutathione S-transferase (GST) in E. coli.
GST-HRasG12V-expressing cells were subjected to ultrasonication in a buffer {50 mM Tris-HCl pH 7.4, 150 mM NaCl, 5 mM MgCl2, 1 mM ethylenediaminetetraacetic acid (EDTA), 1 mM dithiothreitol (DTT), 10% glycerol, and 1% Triton-X100}, and were then centrifuged at 100,000×g for 30 minutes, so as to collect the supernatant as a Ras protein fraction. HRasG12V in the supernatant was immobilized on a glutathione-agarose resin, and GST was then cleaved with PreScission Protease (GE Healthcare) for purification. The obtained HRasG12V was mixed with guanosine 5′-O-[gamma-thio]triphosphate trisodium salt (GTPTS) of 1000 times higher concentration at 30° C. for 1 hour, and thereafter, 20 mM MgCl2 (final concentration) was added to stop the reaction and collect the GTPgS-loaded HRasG12V as a product.
On the other hand, GST-c-Raf-1 RBD-expressing cells were subjected to ultrasonication in the same buffer as described above, and were then centrifuged at 100,000×g for 30 minutes, so as to collected the supernatant as a GST-c-Raf-1 RBD protein fraction.
The in vitro Ras-Raf binding inhibitory activity of the compound of the present invention was evaluated by an ELISA method described below.
GST-c-Raf-1 RBD diluted with a Ras-Raf binding buffer (50 mM Tris-HCl pH7.4, 150 mM NaCl, 5 mM MgCl2, 1 mM EDTA, and 1% Triton-X100) was added to each well of a glutathione-coated 96-well plate (Thermo Fisher Scientific.), and was incubated at 30° C. for 1 hour, to immobilize Raf on the well. The unbound free Raf was eliminated by washing the well with the Ras-Raf binding buffer three times. Subsequently, GTPTS-bound HRasG12V diluted with the Ras-Raf binding buffer and each compound solution (final DMSO concentration: 10%) were applied to each well, and the resulting mixture was then incubated at 30° C. for 1 hour, so that Ras and Raf were allowed to bind to each other. Thereafter, the plate was washed with the Ras-Raf binding buffer twice, and was then subjected to a blocking treatment at room temperature for 20 minutes, using TBS-Tween {10 mM Tris-HCl pH 7.4, 150 mM NaCl, and 0.05% (w/v) Tween-20}-5% (w/v) bovine serum albumin (BSA). After that, an anti-HRas antibody (C-20, Santa Cruz) or an anti-HRas antibody (259, Santa Cruz), which had been 1000 times diluted with TBS-Tween-5% BSA, was added to the reaction mixture, and incubated at room temperature for 1 hours. After the treatment with the primary antibody, the plate was washed with TBS-Tween-5% BSA three times, and a horseradish peroxidase-labeled secondary antibody against rabbit immunoglobulin G (GE Healthcare) of 1000 times diluted with TBS-Tween-5% BSA, was added to the plate, followed by incubation at room temperature for 1 hour. After the treatment with the secondary antibody, the plate was washed with TBS-Tween-5% BSA three times, and a substrate solution (TMB) was then added to the plate, followed by incubation at room temperature for 15 minutes for coloration. Finally, 2 M H2SO4 was added to stop color development (coloration reaction kit: Nacalai Tesque). The absorbance at 450 nm (OD450) was measured, so that the color intensity was quantified. Inhibition by the test compound was determined according to the following equation: […]
IC50 (*) in which the anti-HRas antibody (259, Santa Cruz) was used

[2] = system: promyelocytic leukemia cells HL60 (N-RasQ61L); assay: Cell growth inhibition, suspension cells HL60; format: cell-based; settings: Homo sapiens, HL-60, 72 hours; for inhibition at 10 µM: read-out: HL-60 (NRasQ61L) % inhibition at 10 μM (***)
Description: The cell growth inhibitory activity of the compound of the present invention on human culture cells having active-type mutation in Ras was evaluated by the below-mentioned method using suspension cancer cells {acute lymphoblastic leukemia cells CCRF-CEM (K-RasG12D), promyelocytic leukemia cells HL60 (N-RasQ61L), acute lymphoblastic leukemia cells MOLT4 (N-RasG12C), and small cell lung cancer cells SHP77 (K-RasG12V)} and adherent cancer cells {large bowel cancer cells SW480 (K-RasG12V) and large bowel cancer cell SW620 (K-RasG12V)}.
(Case of suspension cells) The cells suspended in a medium containing 0.5% (v/v) fetal bovine serum (FBS) and each compound solution (final DMSO concentration: 1%) were seeded on a 96-well plate (2 to 4×10^4 cells/well), and the resulting mixture was then cultured at 37° C. in the presence of 5% CO2 for 72 hours.
Thereafter, the number of viable cells was measured using Cell Counting Reagent (Nacalai Tesque) in accordance with the manufacturer's instructions. Inhibition by the test compound was determined according to the following equation: […]

[3] = anti-HRas antibody 259 (*), read-out: ELISA IC50 (μM): 1st Ab_259 (*)
[4] = anti-HRas antibody C-20, read-out: ELISA IC50 (μM): 1st Ab_C-20

Chain of GTPγS-bound human HRasG12V / human c-Raf-1 Ras binding domain (RBD) (P01112 whole entry G12V, the tested form may be a part): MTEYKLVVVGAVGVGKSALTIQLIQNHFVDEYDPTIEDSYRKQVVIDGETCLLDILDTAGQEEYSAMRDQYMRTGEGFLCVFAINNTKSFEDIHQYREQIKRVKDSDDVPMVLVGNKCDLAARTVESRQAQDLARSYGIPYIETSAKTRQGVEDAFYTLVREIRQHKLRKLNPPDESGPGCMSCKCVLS

For `CC(=O)N1/C(=C\c2ccc3cc(CNC4C[C@@H](C)O[C@@H](C)C4)ccc3n2)C(=O)c2ccccc21` (mixture of isomers) [Example 136, (Z)-1-acetyl-2-((6-((((2SR,6RS)-2,6-dimethyltetra-hydro-2H-pyran-4-yl)amino)meth-yl)quinolin-2-yl)-methylene)indolin-3-one], the IC50 [1, 3] was 1.7 µM.
`CC(=O)N1/C(=C\c2ccc3cc(CNC4CC(C)O[C@H](C)C4)ccc3n2)C(=O)c2ccccc21` (mixture of isomers) [Example 137, (Z)-1-acetyl-2-((6-((((2SR,6SR)-2,6-dimethyltetra-hydro-2H-pyran-4-yl)amino)meth-yl)quinolin-2-yl)-methylene)indolin-3-one] gave an IC50 [1, 3] of 1.3 µM.
Work on `CC(=O)N1/C(=C\c2cc(-c3nc[nH]n3)c3cc(C(=O)N4CCOCC4)ccc3n2)C(=O)c2ccccc21` (racemic) [Example 212, 1-acetyl-2-((6-(morpholine-4-carbonyl)-4-(1H-1,2,4-triazol-3-yl)-quinolin-2-yl)-methylene)indolin-3-one] yielded an inhibition at 1 µM [1] of 59.9% and an IC50 [1, 4] of 0.8 µM.
Work on `COc1cc(/C=C2/C(=O)c3ccccc3N2C(C)=O)ccc1O` [Example 3, 1-acetyl-2-(4-hydroxy-3-meth-oxybenzylidene)-indolin-3-one] yielded an inhibition at 100 µM [1] of 57%.
With `CC(=O)N1/C(=C\c2ccc(OCC(N)=O)cc2)C(=O)c2ccccc21` [Example 5, 2-(4-((1-acetyl-3-oxoindolin-2-ylidene)methyl)-phenoxy)acetamide] the inhibition at 100 µM [1] was 71%.
`COc1cc(/C=C2/C(=O)c3ccccc3N2C(C)=O)ccc1OCCN1CCOCC1` [Example 7, (Z)-1-acetyl-2-(3-methoxy-4-(2-morpholinoethoxy)-benzylidene)indolin-3-one] showed an inhibition at 100 µM [1] of 83%.
In the case of `COc1cc(/C=C2/C(=O)c3ccccc3N2C(C)=O)ccc1OCCOc1ccccc1` [Example 12, 1-acetyl-2-(3-methoxy-4-(2-phenoxyethoxy)-benzylidene)-indolin-3-one], the inhibition at 100 µM [1] is reported as 49%.
`CC(=O)N1/C(=C\c2ccc(OCC(N)=O)c(OC(C)C)c2)C(=O)c2ccccc21` [Example 30, 2-(4-((1-acetyl-3-oxoindolin-2-ylidene)methyl)-2-isopropoxy-phenoxy)acet-amide] showed an inhibition at 100 µM [1] of 63%.
In the case of `CC(=O)N1/C(=C\c2ccc(OCC(=O)N3CCOCC3)c(F)n2)C(=O)c2ccccc21` [Example 32, (Z)-1-acetyl-2-((6-fluoro-5-(2-morpholino-2-oxoethoxy)-pyridin-2-yl)-methylene)-indolin-3-one], the IC50 [1, 4] is reported as 14 µM.
`CC(=O)N1/C(=C\c2ccc(C(=O)N3CCOCC3)cn2)C(=O)c2ccccc21` [Example 70, (Z)-1-acetyl-2-((5-(morpholine-4-carbonyl)pyridin-2-yl)methylene)-indolin-3-one] gave an IC50 [1, 4] of 14 µM and an inhibition at 1 µM ([2]; 1 μM, read-out: HL-60 (NRasQ61L) % inhibition at 1 μM) of 33%.
For `CC(=O)N1/C(=C\c2ccc3oc(C(=O)N4CCOCC4)cc3n2)C(=O)c2ccccc21` [Example 72, (Z)-1-acetyl-2-((2-(morpholine-4-carbonyl)furo [3,2-b]pyridin-5-yl)methylene)-indolin-3-one], the IC50 [1, 3] was 3.6 µM.
Molecule `CC(=O)N1/C(=C\c2ccc3cc(CN4CCN(C5COC5)CC4)ccc3n2)C(=O)c2ccccc21` [Example 74, (Z)-1-acetyl-2-((6-((4-(oxetan-3-yl)piperazin-1-yl)methyl)quinolin-2-yl)methylene)-indolin-3-one] has an IC50 [1, 3] of 0.71 µM and an inhibition at 10 µM [2] of 99%.
Work on `CC(=O)N1/C(=C\c2ccc3cc(/C=C/C(=O)N4CCN(C5COC5)CC4)ccc3n2)C(=O)c2ccccc21` [Example 78] yielded an IC50 [1, 3] of 0.93 µM and an inhibition at 10 µM [2] of 92%.
`CC(=O)N1/C(=C\c2nc3cc(C(=O)N4CC(C)OC(C)C4)ccc3s2)C(=O)c2ccccc21` (centres unmarked) [Example 98, (Z)-1-acetyl-2-((5-(2,6-dimethyl-morpholine-4-carbonyl)benzo [d]thiazol-2-yl)-methylene)indolin-3-one] gave an IC50 [1, 3] of 0.68 µM and an inhibition at 10 µM [2] of 100%.
`CC(=O)N1/C(=C/c2nc3ccc(C(=O)N4CC(C)OC(C)C4)cc3s2)C(=O)c2ccccc21` (centres unmarked) [Example 101, (E)-1-acetyl-2-((6-(2,6-dimethyl-morpholine-4-carbonyl)benzo [d]thiazol-2-yl)-methylene)indolin-3-one] showed an inhibition at 10 µM [2] of 87%.
Molecule `CC(=O)N1/C(=C\c2nc3ccc(CNC4CCOCC4)cc3s2)C(=O)c2ccccc21` [Example 134] has an IC50 [1, 3] of 1.1 µM.
`CC(=O)N1/C(=C/c2nc3ccc(CNC4CCOCC4)cc3s2)C(=O)c2ccccc21` [Example 135, (E)-1-acetyl-2-((6-(((tetrahydro-2H-pyran-4-yl)-amino)methyl)-benzo[d]thiazol-2-yl)methylene)-indolin-3-one] gave an inhibition at 10 µM [2] of 98%.
`CC(=O)N1/C(=C\c2cc(-c3cccc4cccnc34)c3cc(C(=O)O)ccc3n2)C(=O)c2ccccc21` [Example 155, (Z)-2-((1-acetyl-3-oxoindolin-2-ylidene)methyl)-[4,8′-biquinoline]-6-carboxylic acid] was tested, and the inhibition at 1 µM [1] was 59.3% and the IC50 [1, 4] was 0.7 µM.
`CC(=O)N1/C(=C\c2cc(-c3ccc(C(=O)O)cc3)c3cc(C(=O)N4CCOCC4)ccc3n2)C(=O)c2ccccc21` [Example 174, (Z)-4-(2-((1-acetyl-3-oxoindolin-2-ylidene)methyl)-6-(morpholine-4-carbonyl)quinolin-4-yl)benzoic acid] showed an inhibition at 1 µM [1] of 70.1% and an IC50 [1, 4] of 0.5 µM.
`CC(=O)N1/C(=C\c2cc(-c3cccc(C(=O)O)c3)c3cc(C(=O)N4CCOCC4)ccc3n2)C(=O)c2ccccc21` [Example 175, (Z)-3-(2-((1-acetyl-3-oxoindolin-2-ylidene)methyl)-6-(morpholine-4-carbonyl)quinolin-4-yl)benzoic acid] showed an inhibition at 1 µM [1] of 67.2% and an IC50 [1, 4] of 0.5 µM.
For `CC(=O)N1/C(=C\c2cc(-c3ccccc3C(=O)O)c3cc(C(=O)N4CCOCC4)ccc3n2)C(=O)c2ccccc21` [Example 176, (Z)-2-(2-((1-acetyl-3-oxoindolin-2-ylidene)methyl)-6-(morpholine-4-carbonyl)quinolin-4-yl)benzoic acid], the inhibition at 1 µM [1] was 51.1% and the IC50 [1, 4] was 1 µM.
`CC(=O)N1/C(=C\c2cc(-c3cccnn3)c3cc(C(=O)N4CCOCC4)ccc3n2)C(=O)c2ccccc21` [Example 191, (Z)-1-acetyl-2-((6-(morpholine-4-carbonyl)-4-(pyridazin-3-yl)-quinolin-2-yl)-methylene)indolin-3-one] gave an inhibition at 1 µM [1] of 49.2% and an IC50 [1, 4] of 1.1 µM.
